Biological target: T1, JMJD1C (partial, 2274-2498aa) (Homo sapiens, UniProt Q15652)
T1 construct: immobilised on CM7 chip
T1 sequence (Q15652 2274-2498): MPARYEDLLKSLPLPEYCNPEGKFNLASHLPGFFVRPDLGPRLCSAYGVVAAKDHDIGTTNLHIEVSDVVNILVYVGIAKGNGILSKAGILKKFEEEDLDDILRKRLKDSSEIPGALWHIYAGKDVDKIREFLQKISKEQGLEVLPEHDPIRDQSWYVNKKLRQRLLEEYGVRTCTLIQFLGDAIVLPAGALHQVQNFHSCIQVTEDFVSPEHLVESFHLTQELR
Assay: SPR, immobilised protein, […] Langmuir fit
Format: binding

`CN1CC(=O)N2[C@H](c3ccc4c(c3)OCO4)c3[nH]c4ccccc4c3C[C@@H]2C1=O` [tadalafil] was tested, and the Kd was 256 µM.
